We go through nine compounds from patent EP3033337B1, “SUBSTITUTED IMIDAZOLES AS N-TYPE CALCIUM CHANNEL BLOCKERS” (Janssen Pharmaceutica NV, priority 2013, dated 2015).

Test [1] deals with T1, human N-type Ca channel (Homo sapiens, UniProt Q00975). As to the kind of experiment: Calcium influx assay (FDSS), KCl depolarization, Fluo8 dye. It is filed as cell-based. Further details: host or cells: HEK 293. In short, it runs like this:
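HEK293 cells stably expressing the human N-type Ca channel were loaded with Fluo8 and washed in choline-based buffer (pH 7.2, 2 mM CaCl2, 2 mM KCl). Cells were preincubated with serially diluted compound for 15 min in the dark. Ca influx was then recorded by fluorescence after depolarization with 100 mM KCl.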

Test [2] concerns the target T1, human N-type Ca channel. As to the kind of experiment: Electrophysiological response, QPatch (depolarization -80 mV to +20 mV). (Patch clamp records ionic current or voltage across a cell membrane.)
Where [3] appears, read: concentration range 0.01-0.3 µM.
The mark [4] stands for this setting: Pulse=15, concentration range 0.01-0.3 µM.
Where [5] appears, read: HEK 293 cells expressing human N-type Ca channel, 100 mM KCl, read-out: N Type IC50 Data FDSS.
[6] abbreviates: read-out: N Type IC50 Data Qpatch Pulse=15, Pulse=15, concentration range 0.01-1 µM.
[7] abbreviates: N Type IC50 Data Qpatch Pulse=1, Pulse=1, concentration range 0.01-0.3 µM.

pIC50: −log10 of the molar value. Like-named read-outs stand apart in the source and are kept apart here.

T1 sequence (Q00975 whole entry): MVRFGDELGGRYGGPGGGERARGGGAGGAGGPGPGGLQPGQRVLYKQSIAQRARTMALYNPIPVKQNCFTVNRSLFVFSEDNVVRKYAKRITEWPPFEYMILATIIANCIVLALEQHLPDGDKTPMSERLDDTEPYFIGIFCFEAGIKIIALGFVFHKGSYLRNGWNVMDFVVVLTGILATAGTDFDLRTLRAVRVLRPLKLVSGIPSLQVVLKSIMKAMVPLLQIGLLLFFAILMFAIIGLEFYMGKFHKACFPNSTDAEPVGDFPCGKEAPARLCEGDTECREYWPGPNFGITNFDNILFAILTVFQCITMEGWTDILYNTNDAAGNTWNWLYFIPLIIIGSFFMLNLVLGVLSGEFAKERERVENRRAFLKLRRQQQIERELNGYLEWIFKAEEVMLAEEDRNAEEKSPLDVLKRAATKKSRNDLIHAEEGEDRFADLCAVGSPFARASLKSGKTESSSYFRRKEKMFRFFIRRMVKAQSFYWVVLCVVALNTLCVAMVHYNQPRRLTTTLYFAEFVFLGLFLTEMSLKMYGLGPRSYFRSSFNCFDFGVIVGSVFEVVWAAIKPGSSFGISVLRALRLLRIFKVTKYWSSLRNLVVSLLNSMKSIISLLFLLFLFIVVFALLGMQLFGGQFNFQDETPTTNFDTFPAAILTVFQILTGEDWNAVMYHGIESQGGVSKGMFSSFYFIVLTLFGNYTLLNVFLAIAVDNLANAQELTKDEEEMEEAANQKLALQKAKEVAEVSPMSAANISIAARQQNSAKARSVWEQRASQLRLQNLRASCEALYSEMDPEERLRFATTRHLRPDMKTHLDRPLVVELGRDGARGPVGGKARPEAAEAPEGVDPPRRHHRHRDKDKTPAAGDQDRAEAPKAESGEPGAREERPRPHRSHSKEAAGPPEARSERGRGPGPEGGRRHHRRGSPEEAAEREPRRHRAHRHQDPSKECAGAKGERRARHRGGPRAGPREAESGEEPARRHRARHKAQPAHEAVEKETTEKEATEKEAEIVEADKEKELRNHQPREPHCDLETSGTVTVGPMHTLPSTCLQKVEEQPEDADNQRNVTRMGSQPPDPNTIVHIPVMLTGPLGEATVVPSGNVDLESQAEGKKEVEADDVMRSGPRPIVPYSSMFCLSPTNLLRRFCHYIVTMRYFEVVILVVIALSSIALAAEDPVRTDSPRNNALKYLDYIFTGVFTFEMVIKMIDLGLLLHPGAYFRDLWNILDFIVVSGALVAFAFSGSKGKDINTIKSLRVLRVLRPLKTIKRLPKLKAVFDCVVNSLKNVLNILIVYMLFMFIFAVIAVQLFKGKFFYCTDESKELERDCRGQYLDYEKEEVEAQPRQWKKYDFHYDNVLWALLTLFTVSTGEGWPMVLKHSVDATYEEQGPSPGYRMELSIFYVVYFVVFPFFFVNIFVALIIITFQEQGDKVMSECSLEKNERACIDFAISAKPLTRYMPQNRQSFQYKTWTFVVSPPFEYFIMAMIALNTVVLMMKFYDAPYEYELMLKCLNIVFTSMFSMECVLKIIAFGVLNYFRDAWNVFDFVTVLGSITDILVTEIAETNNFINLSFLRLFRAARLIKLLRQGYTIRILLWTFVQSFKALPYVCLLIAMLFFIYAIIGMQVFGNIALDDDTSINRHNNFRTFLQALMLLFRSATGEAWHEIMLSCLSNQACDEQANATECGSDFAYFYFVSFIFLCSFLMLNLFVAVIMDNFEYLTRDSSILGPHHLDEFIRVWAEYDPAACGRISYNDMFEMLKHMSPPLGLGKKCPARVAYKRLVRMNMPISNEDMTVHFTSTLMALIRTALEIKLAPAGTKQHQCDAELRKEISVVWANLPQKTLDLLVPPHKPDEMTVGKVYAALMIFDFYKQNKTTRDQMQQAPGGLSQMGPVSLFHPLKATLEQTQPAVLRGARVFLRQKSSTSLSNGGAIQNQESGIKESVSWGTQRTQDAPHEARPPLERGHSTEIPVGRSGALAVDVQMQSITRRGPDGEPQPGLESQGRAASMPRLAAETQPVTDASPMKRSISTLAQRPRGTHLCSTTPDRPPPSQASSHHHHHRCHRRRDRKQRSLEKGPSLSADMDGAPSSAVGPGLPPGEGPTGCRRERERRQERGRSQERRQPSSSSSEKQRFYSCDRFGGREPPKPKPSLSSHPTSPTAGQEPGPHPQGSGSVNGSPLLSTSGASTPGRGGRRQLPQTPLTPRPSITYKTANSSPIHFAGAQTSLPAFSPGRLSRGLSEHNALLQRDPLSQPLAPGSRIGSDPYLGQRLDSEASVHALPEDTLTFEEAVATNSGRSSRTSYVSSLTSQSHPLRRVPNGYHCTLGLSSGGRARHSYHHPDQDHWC
T1 sequence (P54284 whole entry partner): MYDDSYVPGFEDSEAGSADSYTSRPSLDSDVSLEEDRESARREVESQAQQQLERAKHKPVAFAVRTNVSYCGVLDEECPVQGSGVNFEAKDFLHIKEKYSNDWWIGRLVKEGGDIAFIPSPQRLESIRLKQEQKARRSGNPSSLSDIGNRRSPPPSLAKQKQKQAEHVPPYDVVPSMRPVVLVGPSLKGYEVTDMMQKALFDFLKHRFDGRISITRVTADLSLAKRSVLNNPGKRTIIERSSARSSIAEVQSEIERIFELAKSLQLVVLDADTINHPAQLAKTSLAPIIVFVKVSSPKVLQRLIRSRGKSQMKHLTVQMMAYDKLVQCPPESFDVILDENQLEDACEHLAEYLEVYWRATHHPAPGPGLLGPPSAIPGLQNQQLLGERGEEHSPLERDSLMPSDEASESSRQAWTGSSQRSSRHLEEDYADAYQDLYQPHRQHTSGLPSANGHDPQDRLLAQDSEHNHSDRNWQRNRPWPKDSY
T1 sequence (P54289 25-956 partner limits assumed): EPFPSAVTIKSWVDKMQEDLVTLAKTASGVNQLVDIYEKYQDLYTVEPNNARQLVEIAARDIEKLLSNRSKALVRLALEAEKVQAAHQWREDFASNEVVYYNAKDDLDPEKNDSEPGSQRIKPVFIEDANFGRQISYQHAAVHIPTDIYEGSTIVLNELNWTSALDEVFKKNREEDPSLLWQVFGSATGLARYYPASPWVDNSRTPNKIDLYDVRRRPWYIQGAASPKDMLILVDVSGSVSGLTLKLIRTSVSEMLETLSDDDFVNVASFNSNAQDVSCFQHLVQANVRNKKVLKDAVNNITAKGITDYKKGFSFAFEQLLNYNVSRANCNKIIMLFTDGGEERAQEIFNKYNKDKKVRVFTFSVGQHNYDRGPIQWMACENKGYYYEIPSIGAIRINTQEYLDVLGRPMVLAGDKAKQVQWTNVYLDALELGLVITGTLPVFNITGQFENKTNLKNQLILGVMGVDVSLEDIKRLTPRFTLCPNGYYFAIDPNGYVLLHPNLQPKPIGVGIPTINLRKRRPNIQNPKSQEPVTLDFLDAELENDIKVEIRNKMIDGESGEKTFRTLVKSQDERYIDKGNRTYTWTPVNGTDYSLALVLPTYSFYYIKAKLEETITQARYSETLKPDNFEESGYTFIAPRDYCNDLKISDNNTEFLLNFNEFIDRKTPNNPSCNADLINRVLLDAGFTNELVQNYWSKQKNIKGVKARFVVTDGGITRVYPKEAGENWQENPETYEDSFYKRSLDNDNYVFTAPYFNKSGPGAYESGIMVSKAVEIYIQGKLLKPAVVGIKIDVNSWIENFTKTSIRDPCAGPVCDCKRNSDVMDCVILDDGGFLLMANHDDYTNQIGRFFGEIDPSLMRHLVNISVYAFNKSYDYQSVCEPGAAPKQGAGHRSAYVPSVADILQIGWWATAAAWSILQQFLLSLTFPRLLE
T1 sequence (P54289 957-1103 partner limits assumed): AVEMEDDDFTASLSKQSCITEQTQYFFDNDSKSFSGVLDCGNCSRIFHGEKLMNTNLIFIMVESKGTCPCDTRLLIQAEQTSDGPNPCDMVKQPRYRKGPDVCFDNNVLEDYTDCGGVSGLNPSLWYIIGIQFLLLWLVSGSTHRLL

In general, pIC50 refers to the negative decadic logarithm of the IC50, by convention in mol/L. As to `COc1ccccc1-c1nc(C2CC(C)(C)OC(C)(C)C2)cn1-c1c(F)cc(C#N)cc1F` [Compound 83, 3,5-difluoro-4-(2-(2-methoxyphenyl)-4-(2,2,6,6-tetramethyltetrahydro-2H-pyran-4-yl)-1H-imidazol-1-yl)benzonitrile], at human N-type Ca channel [1], the negative logarithm of the IC50 (pIC50) was 7.31. The “N Type IC50 Data Qpatch Pulse=1” value on human N-type Ca channel [2] (setting [3]) is given as “poor fit(0.01-0.3 µM)”. Further, the “N Type IC50 Data Qpatch Pulse=15” value on human N-type Ca channel [2] (setting [4]) was “poor fit(0.01-0.3 µM)”.

With `COc1ncccc1-c1nc(C2CC(C)(C)OC(C)(C)C2)cn1-c1ccc(Cl)c(C#N)c1` [Compound 84, 2-chloro-5-(2-(2-methoxypyridin-3-yl)-4-(2,2,6,6-tetramethyltetrahydro-2H-pyran-4-yl)-1H-imidazol-1-yl)benzonitrile], the pIC50 was 6.44 at human N-type Ca channel [1] (setting [5]) and less than 6.00 at human N-type Ca channel [2] (setting [6]).

Consider `COc1ccc(-n2cc(C3CC(C)(C)OC(C)(C)C3)nc2-c2cccnc2OC)cc1C#N` [Compound 85, 2-methoxy-5-(2-(2-methoxypyridin-3-yl)-4-(2,2,6,6-tetramethyltetrahydro-2H-pyran-4-yl)-1H-imidazol-1-yl)benzonitrile], for which the pIC50 is 5.19 on human N-type Ca channel [1] (setting [5]) and less than 6.00 on human N-type Ca channel [2] (setting [6]).

On to `COc1ncncc1-c1nc(C2CC(C)(C)OC(C)(C)C2)cn1-c1ccc(C#N)cc1` [Compound 86, 4-(2-(4-methoxypyrimidin-5-yl)-4-(2,2,6,6-tetramethyltetrahydro-2H-pyran-4-yl)-1H-imidazol-1-yl)benzonitrile], for which the results for the pIC50 at human N-type Ca channel [1] (setting [5]) and on human N-type Ca channel [2] (setting [6]) were 5.89 and less than 6.00, respectively.

In the case of `COc1nccnc1-c1nc(C2CC(C)(C)OC(C)(C)C2)cn1-c1ccc(C#N)cc1` [Compound 87, 4-(2-(3-methoxypyrazin-2-yl)-4-(2,2,6,6-tetramethyltetrahydro-2H-pyran-4-yl)-1H-imidazol-1-yl)benzonitrile], the pIC50 at human N-type Ca channel [1] (setting [5]) is 5.21. Moreover, the “N Type IC50 Data Qpatch Pulse=1” value at human N-type Ca channel [2] (setting [3]) is reported as “poor fit(0.01-0.3 µM)”. Also, the “N Type IC50 Data Qpatch Pulse=15” value at human N-type Ca channel [2] (setting [4]) is given as “poor fit(0.01-0.3 µM)”.

As for `COc1nccnc1-c1nc(C2CC(C)(C)OC(C)(C)C2)cn1-c1ccc(C#N)c(F)c1` [Compound 88, 2-fluoro-4-(2-(3-methoxypyrazin-2-yl)-4-(2,2,6,6-tetramethyltetrahydro-2H-pyran-4-yl)-1H-imidazol-1-yl)benzonitrile], the pIC50 was 5.66 on human N-type Ca channel [1] (setting [5]) and 6.46 on human N-type Ca channel [2] (setting [7]). Further, the “N Type IC50 Data Qpatch Pulse=15” value on human N-type Ca channel [2] (setting [4]) is “poor fit(0.01-0.3 µM)”.

Turning to `CCOc1ncccc1-c1nc(C2CC(C)(C)OC(C)(C)C2)cn1-c1ccc(C#N)c(F)c1` [Compound 89, 4-(2-(2-ethoxypyridin-3-yl)-4-(2,2,6,6-tetramethyltetrahydro-2H-pyran-4-yl)-1H-imidazol-1-yl)-2-fluorobenzonitrile], the pIC50 on human N-type Ca channel [1] (setting [5]) was 6.69; against human N-type Ca channel [2] (setting [7]), 6.29. The “N Type IC50 Data Qpatch Pulse=15” value on human N-type Ca channel [2] (setting [4]) is “poor fit(0.01-0.3 µM)”.

On to `COc1ccccc1-c1nc(C2CC(C)(C)OC(C)(C)C2)c(C)n1-c1ccc(Cl)cc1` [Compound 90, 1-(4-chlorophenyl)-2-(2-methoxyphenyl)-5-methyl-4-(2,2,6,6-tetramethyltetrahydro-2H-pyran-4-yl)-1H-imidazole], for which the pIC50 on human N-type Ca channel [1] (setting [5]) was 6.92. Moreover, the “N Type IC50 Data Qpatch Pulse=1” value at human N-type Ca channel [2] (setting [3]) is recorded as “poor fit(0.01-0.3 µM)”. For the same compound, the “N Type IC50 Data Qpatch Pulse=15” value at human N-type Ca channel [2] (setting [4]) is reported as “poor fit(0.01-0.3 µM)”.

In general, inhibition refers to the drop in the measured response relative to a control, in per cent. As to `COc1ncccc1-c1nc(C2CC(C)(C)OC(C)(C)C2)c(Cl)n1-c1ccc(C#N)cc1` [Compound 91, 4-(5-chloro-2-(2-methoxypyridin-3-yl)-4-(2,2,6,6-tetramethyltetrahydro-2H-pyran-4-yl)-1H-imidazol-1-yl)benzonitrile], on human N-type Ca channel [1] (setting [5]), the pIC50 is 5.84. In addition, the figures for the inhibition at 10 µM on human N-type Ca channel [2] (read-out: Qpatch Pulse=1 (percent inhibition)) and at human N-type Ca channel [2] (read-out: Qpatch Pulse=15 (percent inhibition)) were 58% and 62%, respectively.
